Experimental data as given in patent US20230085307A1, “PYRIDAZINONE COMPOUND AND HERBICIDE” (NISSAN CHEMICAL CORPORATION, priority 2019, published 2023).

Assays:
[1] = test system: redroot pigweed; assay: Test Example 4: herbicidal effect by soil treatment (Table 19, symbol N); type: in vivo, redroot pigweed (Amaranthus retroflexus); settings: amount of applied herbicide 320 g/ha
Outline: (§1)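 Soil-surface application: an emulsion agent diluted with water to the predetermined dose is sprayed uniformly over seeds lying under roughly 1.5 cm of sterilized diluvial soil. Boxes stay in a greenhouse at 25° C. to 30° C. Three weeks later, each species is graded on previously defined criteria.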

[2] = test system: wild oat; assay: Test Example 5: herbicidal effect by foliage application, plastic box (Table 20, symbol I); type: in vivo, wild oat (Avena fatua); settings: amount of applied herbicide 320 g/ha; foliage application after 14-day growth; evaluated three weeks after application
Outline: (§2)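 Sow seeds spot-wise in sterilized diluvial soil; cover with ~1.5 cm soil. Grow 14 days in greenhouse, 25° C. to 30° C. Spray foliage with emulsion diluted to predetermined amount. Rate effect after 3 weeks.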

[3] = test system: velvetleaf; assay: Test Example 4: herbicidal effect by soil treatment (Table 19, symbol M); type: in vivo, velvetleaf (Abutilon theophrasti); settings: amount of applied herbicide 320 g/ha
Outline: as §1

[4] = test system: chickweed; assay: Test Example 5: herbicidal effect by foliage application, plastic box (Table 20, symbol P); type: in vivo, common chickweed (Stellaria media); settings: amount of applied herbicide 320 g/ha; foliage application after 14-day growth; evaluated three weeks after application
Outline: as §2

[5] = test system: Italian ryegrass; assay: Test Example 4: herbicidal effect by soil treatment (Table 19, symbol K); type: in vivo, Italian ryegrass (Lolium multiflorum); settings: amount of applied herbicide 320 g/ha
Outline: as §1

[6] = test system: green foxtail; assay: Test Example 4: herbicidal effect by soil treatment (Table 19, symbol G); type: in vivo, green foxtail (Setaria viridis); settings: amount of applied herbicide 320 g/ha
Outline: as §1

[7] = test system: blackgrass; assay: Test Example 4: herbicidal effect by soil treatment (Table 19, symbol J); type: in vivo, blackgrass (Alopecurus myosuroides); settings: amount of applied herbicide 320 g/ha
Outline: as §1

[8] = test system: persian speedwell; assay: Test Example 5: herbicidal effect by foliage application, plastic box (Table 20, symbol R); type: in vivo, Persian speedwell (Veronica persica); settings: amount of applied herbicide 320 g/ha; foliage application after 14-day growth; evaluated three weeks after application
Outline: as §2

[9] = test system: southern crabgrass; assay: Test Example 4: herbicidal effect by soil treatment (Table 19, symbol F); type: in vivo, southern crabgrass (Digitaria ciliaris); settings: amount of applied herbicide 320 g/ha
Outline: as §1

[10] = test system: rice flat sedge; assay: Test Example 3: herbicidal effect by foliage application, Wagner pot (Table 18, symbol E); type: in vivo, rice flat sedge (Cyperus iria); settings: 320 g/ha
Outline: (§3)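 Plants were sown in alluvial soil held under 0.1–0.5 cm standing water and grown 14 days in a greenhouse at 25–30 °C. An emulsifiable formulation, water-diluted to the set dose, was then sprayed onto the foliage, and effects were scored three weeks later using previously defined criteria.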

[11] = test system: Italian ryegrass; assay: Test Example 5: herbicidal effect by foliage application, plastic box (Table 20, symbol K); type: in vivo, Italian ryegrass (Lolium multiflorum); settings: amount of applied herbicide 320 g/ha; foliage application after 14-day growth; evaluated three weeks after application
Outline: as §2

[12] = test system: barnyard grass; assay: Test Example 4: herbicidal effect by soil treatment (Table 19, symbol H); type: in vivo, barnyard grass (Echinochloa crus-galli); settings: amount of applied herbicide 320 g/ha
Outline: as §1

[13] = test system: windgrass; assay: Test Example 4: herbicidal effect by soil treatment (Table 19, symbol L); type: in vivo, windgrass (Apera spica-venti); settings: amount of applied herbicide 320 g/ha
Outline: as §1

[14] = test system: Chinese sprangletop; assay: Test Example 3: herbicidal effect by foliage application, Wagner pot (Table 18, symbol D); type: in vivo, chinese sprangletop (Leptochloa chinensis); settings: 320 g/ha
Outline: as §3

[15] = test system: wild oat; assay: Test Example 4: herbicidal effect by soil treatment (Table 19, symbol I); type: in vivo, wild oat (Avena fatua); settings: amount of applied herbicide 320 g/ha
Outline: as §1

[16] = test system: barnyard grass; assay: Test Example 3: herbicidal effect by foliage application, Wagner pot (Table 18, symbol H); type: in vivo, barnyard grass (Echinochloa crus-galli); settings: 320 g/ha
Outline: as §3

[17] = test system: barnyard grass; assay: Test Example 5: herbicidal effect by foliage application, plastic box (Table 20, symbol H); type: in vivo, barnyard grass (Echinochloa crus-galli); settings: amount of applied herbicide 320 g/ha; foliage application after 14-day growth; evaluated three weeks after application
Outline: as §2

[18] = test system: blackgrass; assay: Test Example 5: herbicidal effect by foliage application, plastic box (Table 20, symbol J); type: in vivo, blackgrass (Alopecurus myosuroides); settings: amount of applied herbicide 320 g/ha; foliage application after 14-day growth; evaluated three weeks after application
Outline: as §2

[19] = test system: windgrass; assay: Test Example 5: herbicidal effect by foliage application, plastic box (Table 20, symbol L); type: in vivo, windgrass (Apera spica-venti); settings: amount of applied herbicide 320 g/ha; foliage application after 14-day growth; evaluated three weeks after application
Outline: as §2

[20] = test system: green foxtail; assay: Test Example 5: herbicidal effect by foliage application, plastic box (Table 20, symbol G); type: in vivo, green foxtail (Setaria viridis); settings: amount of applied herbicide 320 g/ha; foliage application after 14-day growth; evaluated three weeks after application
Outline: as §2

[21] = test system: velvetleaf; assay: Test Example 5: herbicidal effect by foliage application, plastic box (Table 20, symbol M); type: in vivo, velvetleaf (Abutilon theophrasti); settings: amount of applied herbicide 320 g/ha; foliage application after 14-day growth; evaluated three weeks after application
Outline: as §2

[22] = test system: persian speedwell; assay: Test Example 4: herbicidal effect by soil treatment (Table 19, symbol R); type: in vivo, Persian speedwell (Veronica persica); settings: amount of applied herbicide 320 g/ha
Outline: as §1

[23] = test system: lambsquarters; assay: Test Example 4: herbicidal effect by soil treatment (Table 19, symbol O); type: in vivo, lambsquarters (Chenopodium album); settings: amount of applied herbicide 320 g/ha
Outline: as §1

[24] = test system: redroot pigweed; assay: Test Example 5: herbicidal effect by foliage application, plastic box (Table 20, symbol N); type: in vivo, redroot pigweed (Amaranthus retroflexus); settings: amount of applied herbicide 320 g/ha; foliage application after 14-day growth; evaluated three weeks after application
Outline: as §2

[25] = test system: lambsquarters; assay: Test Example 5: herbicidal effect by foliage application, plastic box (Table 20, symbol O); type: in vivo, lambsquarters (Chenopodium album); settings: amount of applied herbicide 320 g/ha; foliage application after 14-day growth; evaluated three weeks after application
Outline: as §2

[26] = test system: chickweed; assay: Test Example 4: herbicidal effect by soil treatment (Table 19, symbol P); type: in vivo, common chickweed (Stellaria media); settings: amount of applied herbicide 320 g/ha
Outline: as §1

[27] = test system: southern crabgrass; assay: Test Example 5: herbicidal effect by foliage application, plastic box (Table 20, symbol F); type: in vivo, southern crabgrass (Digitaria ciliaris); settings: amount of applied herbicide 320 g/ha; foliage application after 14-day growth; evaluated three weeks after application
Outline: as §2

Row | SMILES | Herbicidal effect by foliage application, I: wild oat [2] | Herbicidal effect by foliage application, P: chickweed [4] | Herbicidal effect by foliage application, R: persian speedwell [8] | herbicidal effect on rice flat sedge (E) [10] | Herbicidal effect by foliage application, K: Italian ryegrass [11] | herbicidal effect on Chinese sprangletop (D) [14] | herbicidal effect on barnyard grass (H) [16] | Herbicidal effect by foliage application, H: barnyard grass [17] | Herbicidal effect by foliage application, J: blackgrass [18] | Herbicidal effect by foliage application, L: windgrass [19] | Herbicidal effect by foliage application, G: green foxtail [20] | Herbicidal effect by foliage application, M: velvetleaf [21] | Herbicidal effect by foliage application, N: redroot pigweed [24] | Herbicidal effect by foliage application, O: lambsquarters [25] | Herbicidal effect by foliage application, F: southern crabgrass [27] | N: redroot pigweed, herbicidal effect grade [1] | M: velvetleaf, herbicidal effect grade [3] | K: Italian ryegrass, herbicidal effect grade [5] | G: green foxtail, herbicidal effect grade [6] | J: blackgrass, herbicidal effect grade [7] | also measured
1 | COc1cccc(-c2sc3c(C)cccc3c2-c2c(O)c(C)nn(C)c2=O)c1 [4-108] | 0 (Herbicidal rate of 5% or less (almost no effect)) | 5 (Herbicidal rate of 90% or more (almost completely withered)) | 5 (Herbicidal rate of 90% or more (almost completely withered)) | 5 (Herbicidal rate of 90% or more (almost completely withered)) | 5 (Herbicidal rate of 90% or more (almost completely withered)) | 0 (Herbicidal rate of 5% or less (almost no effect)) | 4 (Herbicidal rate of 70% or more and less than 90%) | 2 (Herbicidal rate of 20% or more and less than 40%) | 4 (Herbicidal rate of 70% or more and less than 90%) | 0 (Herbicidal rate of 5% or less (almost no effect)) | 3 (Herbicidal rate of 40% or more and less than 70%) | 4 (Herbicidal rate of 70% or more and less than 90%) | 4 (Herbicidal rate of 70% or more and less than 90%) | 4 (Herbicidal rate of 70% or more and less than 90%) | 3 (Herbicidal rate of 40% or more and less than 70%) |  |  |  |  |  | Herbicidal effect by soil treatment, N: redroot pigweed [1]: 5 (Herbicidal rate of 90% or more (almost completely withered)); Herbicidal effect by soil treatment, M: velvetleaf [3]: 3 (Herbicidal rate of 40% or more and less than 70%); Herbicidal effect by soil treatment, K: Italian ryegrass [5]: 1 (Herbicidal rate of 5% or more and less than 20%); Herbicidal effect by soil treatment, G: green foxtail [6]: 0 (Herbicidal rate of 5% or less (almost no effect)); Herbicidal effect by soil treatment, J: blackgrass [7]: 2 (Herbicidal rate of 20% or more and less than 40%); Herbicidal effect by soil treatment, F: southern crabgrass [9]: 2 (Herbicidal rate of 20% or more and less than 40%); Herbicidal effect by soil treatment, H: barnyard grass [12]: 0 (Herbicidal rate of 5% or less (almost no effect)); Herbicidal effect by soil treatment, L: windgrass [13]: 0 (Herbicidal rate of 5% or less (almost no effect)); Herbicidal effect by soil treatment, I: wild oat [15]: 0 (Herbicidal rate of 5% or less (almost no effect)); Herbicidal effect by soil treatment, R: persian speedwell [22]: 3 (Herbicidal rate of 40% or more and less than 70%); Herbicidal effect by soil treatment, O: lambsquarters [23]: 4 (Herbicidal rate of 70% or more and less than 90%); Herbicidal effect by soil treatment, P: chickweed [26]: 1 (Herbicidal rate of 5% or more and less than 20%)
2 | COc1ccc(-c2sc3cc(F)c(F)cc3c2-c2c(O)c(C)nn(C)c2=O)cc1OC [5-033] | 0 (Herbicidal rate of 5% or less (almost no effect)) | 5 (Herbicidal rate of 90% or more (almost completely withered)) | 5 (Herbicidal rate of 90% or more (almost completely withered)) | 4 (Herbicidal rate of 70% or more and less than 90%) | 4 (Herbicidal rate of 70% or more and less than 90%) | 3 (Herbicidal rate of 40% or more and less than 70%) | 4 (Herbicidal rate of 70% or more and less than 90%) | 3 (Herbicidal rate of 40% or more and less than 70%) | 0 (Herbicidal rate of 5% or less (almost no effect)) | 0 (Herbicidal rate of 5% or less (almost no effect)) | 4 (Herbicidal rate of 70% or more and less than 90%) | 4 (Herbicidal rate of 70% or more and less than 90%) | 3 (Herbicidal rate of 40% or more and less than 70%) | 4 (Herbicidal rate of 70% or more and less than 90%) | 1 (Herbicidal rate of 5% or more and less than 20%) | 3 (Herbicidal rate of 40% or more and less than 70%) | 0 (Herbicidal rate of 5% or less (almost no effect)) | 0 (Herbicidal rate of 5% or less (almost no effect)) | 3 (Herbicidal rate of 40% or more and less than 70%) | 0 (Herbicidal rate of 5% or less (almost no effect)) | F: southern crabgrass, herbicidal effect grade [9]: 3 (Herbicidal rate of 40% or more and less than 70%); H: barnyard grass, herbicidal effect grade [12]: 3 (Herbicidal rate of 40% or more and less than 70%); L: windgrass, herbicidal effect grade [13]: 0 (Herbicidal rate of 5% or less (almost no effect)); I: wild oat, herbicidal effect grade [15]: 0 (Herbicidal rate of 5% or less (almost no effect)); R: persian speedwell, herbicidal effect grade [22]: 0 (Herbicidal rate of 5% or less (almost no effect)); O: lambsquarters, herbicidal effect grade [23]: 4 (Herbicidal rate of 70% or more and less than 90%); P: chickweed, herbicidal effect grade [26]: 1 (Herbicidal rate of 5% or more and less than 20%)
3 | CCCC(=O)Oc1c(C)nn(C)c(=O)c1-c1c(-c2ccc(F)cc2)sc2cc(Cl)c(Cl)cc12 [5-040] | 3 (Herbicidal rate of 40% or more and less than 70%) | 5 (Herbicidal rate of 90% or more (almost completely withered)) | 4 (Herbicidal rate of 70% or more and less than 90%) | 0 (Herbicidal rate of 5% or less (almost no effect)) | 0 (Herbicidal rate of 5% or less (almost no effect)) | 1 (Herbicidal rate of 5% or more and less than 20%) | 4 (Herbicidal rate of 70% or more and less than 90%) | 2 (Herbicidal rate of 20% or more and less than 40%) | 0 (Herbicidal rate of 5% or less (almost no effect)) | 3 (Herbicidal rate of 40% or more and less than 70%) | 1 (Herbicidal rate of 5% or more and less than 20%) | 1 (Herbicidal rate of 5% or more and less than 20%) | 3 (Herbicidal rate of 40% or more and less than 70%) | 3 (Herbicidal rate of 40% or more and less than 70%) | 0 (Herbicidal rate of 5% or less (almost no effect)) | 4 (Herbicidal rate of 70% or more and less than 90%) | 2 (Herbicidal rate of 20% or more and less than 40%) | 0 (Herbicidal rate of 5% or less (almost no effect)) | 3 (Herbicidal rate of 40% or more and less than 70%) | 0 (Herbicidal rate of 5% or less (almost no effect)) | F: southern crabgrass, herbicidal effect grade [9]: 0 (Herbicidal rate of 5% or less (almost no effect)); H: barnyard grass, herbicidal effect grade [12]: 0 (Herbicidal rate of 5% or less (almost no effect)); L: windgrass, herbicidal effect grade [13]: 0 (Herbicidal rate of 5% or less (almost no effect)); I: wild oat, herbicidal effect grade [15]: 0 (Herbicidal rate of 5% or less (almost no effect)); R: persian speedwell, herbicidal effect grade [22]: 0 (Herbicidal rate of 5% or less (almost no effect)); O: lambsquarters, herbicidal effect grade [23]: 0 (Herbicidal rate of 5% or less (almost no effect)); P: chickweed, herbicidal effect grade [26]: 0 (Herbicidal rate of 5% or less (almost no effect))
